From patent publication US20130196984A1, “3-AMINO-5-PHENYL-56-DIHYDRO-2H-[1,4]OXAZINES” (Siena Biotech S.p.A., priority 2009, published 2013) come the findings set out here.

Experiment [1] addresses T1, BACE2 (Rattus norvegicus, UniProt Q6IE75).
T1 construct: endogenous cellular BACE2 in the Ins1e rat cell line; endogenous in cells; host or cells: INS-TMEM27 (INS1e-derived rat cell line with doxycycline-inducible full-length hTMEM27)
T1 sequence (Q6IE75 63-514): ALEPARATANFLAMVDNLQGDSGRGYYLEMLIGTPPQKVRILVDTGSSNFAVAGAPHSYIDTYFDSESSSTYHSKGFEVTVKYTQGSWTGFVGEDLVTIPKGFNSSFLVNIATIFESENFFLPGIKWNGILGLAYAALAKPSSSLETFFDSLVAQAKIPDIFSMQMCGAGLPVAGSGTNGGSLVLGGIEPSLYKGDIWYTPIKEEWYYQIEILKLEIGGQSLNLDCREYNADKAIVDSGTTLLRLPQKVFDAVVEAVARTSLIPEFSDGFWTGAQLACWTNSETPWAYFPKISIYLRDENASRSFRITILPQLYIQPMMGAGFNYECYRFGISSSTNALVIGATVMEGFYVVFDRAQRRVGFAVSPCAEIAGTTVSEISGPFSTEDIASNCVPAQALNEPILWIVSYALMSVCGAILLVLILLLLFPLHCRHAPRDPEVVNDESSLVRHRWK
In words: Assay for BACE inhibition by measuring cellular TMEM27 cleavage.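 Further: inhibitor added 2 h before doxycycline-induced hTMEM27 expression, supernatant collected after further 46 h, endogenous BACE2 activity read as reduced TMEM27 shedding.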 It is filed as cell-based. Conditions: INS-TMEM27 (INS1e-derived) cells, ELISA of shed human TMEM27 in supernatant. In general terms: ELISA stands for enzyme-linked immunosorbent assay.

The target in experiment [2] is T2, BACE1 (Homo sapiens, UniProt P56817). Briefly: Cellular Abeta-lowering assay. It is filed as cell-based. More on the design: endogenous in cells; host or cells: HEK293 stably transfected with human APP695 wt. Conditions: HEK293 cells stably transfected with human APP wt (APP695), Aβ40 ELISA of supernatant after 18-20 hrs.
In experiment [3] the target is T2, BACE1. In words: Assay A: binding studies using SPR based methods, immobilised BACE1.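 Further: KD from a 1:1 kinetic fit (koff/kon) of real-time association and dissociation curves, or for fast binders from end-of-association equilibrium responses plotted against log concentration.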 The arrangement: 6his-tagged full length BACE 1 expressed in SF9 cells; 6His; made in house; host or cells: SF9 insect cells. As to conditions: CM5 chip, immobilised 6his-tagged full length BACE 1, acetate buffer pH 4.6, 4% DMSO.
For experiment [4], the target named is T3, BACE2 (Homo sapiens, UniProt Q9Y5Z0).
T3 construct: BACE2 enzyme ectodomain (derived from plasmid “pET17b-T7-hu proBACE2”); T7 (N); made in house
T3 sequence (Q9Y5Z0 63-473 limits assumed): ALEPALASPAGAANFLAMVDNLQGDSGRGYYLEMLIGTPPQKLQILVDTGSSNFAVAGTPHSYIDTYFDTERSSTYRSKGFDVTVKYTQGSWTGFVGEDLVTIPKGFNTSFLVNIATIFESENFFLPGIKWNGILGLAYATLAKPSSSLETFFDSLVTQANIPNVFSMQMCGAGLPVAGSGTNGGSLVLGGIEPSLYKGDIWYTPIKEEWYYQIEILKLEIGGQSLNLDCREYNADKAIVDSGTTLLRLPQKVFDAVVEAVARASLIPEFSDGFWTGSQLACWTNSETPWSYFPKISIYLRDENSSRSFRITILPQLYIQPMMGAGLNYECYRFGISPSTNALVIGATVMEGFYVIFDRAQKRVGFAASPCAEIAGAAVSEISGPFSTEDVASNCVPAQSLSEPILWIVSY
Briefly: Assay A: binding studies using SPR based methods, immobilised BACE2. Conditions: CM5 chip, immobilised BACE2 enzyme ectodomain, acetate buffer pH 4.6, 4% DMSO. (SPR reads the build-up and loss of mass on a sensor chip optically.)

Structures can show the parent of a compound that is named as a salt.

T2 sequence (P56817 46-501): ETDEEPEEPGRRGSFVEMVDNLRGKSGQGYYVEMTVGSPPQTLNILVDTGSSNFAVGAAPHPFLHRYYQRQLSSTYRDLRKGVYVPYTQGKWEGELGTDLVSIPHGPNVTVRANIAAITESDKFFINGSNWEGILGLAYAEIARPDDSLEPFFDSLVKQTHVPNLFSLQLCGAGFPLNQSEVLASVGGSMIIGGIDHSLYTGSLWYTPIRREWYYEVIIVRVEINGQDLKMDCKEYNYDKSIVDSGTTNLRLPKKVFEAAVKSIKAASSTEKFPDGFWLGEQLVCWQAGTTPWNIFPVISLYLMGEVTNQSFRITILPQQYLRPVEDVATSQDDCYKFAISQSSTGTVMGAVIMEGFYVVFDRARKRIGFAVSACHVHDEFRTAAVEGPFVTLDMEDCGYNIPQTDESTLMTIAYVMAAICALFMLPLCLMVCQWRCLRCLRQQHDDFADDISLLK

What is called IC50 is the concentration at which inhibition is half-maximal. Consider `Cc1nc(C(F)(F)F)c(C(=O)Nc2ccc(F)c([C@]3(C)COCC(N)=N3)c2)s1` [Example 47, 2-methyl-4-trifluoromethyl-thiazole-5-carboxylic acid [3-((R)-5-amino-3-methyl-3,6-dihydro-2H-[1,4]oxazin-3-yl)-4-fluoro-phenyl]-amide], for which the half-inhibitory concentration (IC50) amounted to 730 nM in experiment [1] and 800 nM in experiment [2].
As for `CC1(c2cc(NC(=S)c3ccc(Cl)cc3)ccc2F)COCC(N)=N1` (racemic) [Example 27, (RS)—N-[3-(5-Amino-3-methyl-3,6-dihydro-2H-[1,4]oxazin-3-yl)-4-fluoro-phenyl]-4-chloro-thiobenzamide], the IC50 in experiment [1] amounted to 320 nM; in experiment [2], 1130 nM.
What is called Kd is the concentration at which binding is half-saturated. Low values mean higher affinity, high ones lower affinity. In the case of `C[C@@]1(c2cc(NC(=O)c3ncc(Cl)cc3F)ccc2F)COCC(N)=N1` [Example 74, 5-Chloro-3-fluoro-pyridine-2-carboxylic acid [3-((R)-5-amino-3-methyl-3,6-dihydro-2H-[1,4]oxazin-3-yl)-4-fluoro-phenyl]-amide hydrochloride], the 50% inhibitory concentration (IC50) was 1350 nM in experiment [1] and 4 nM in experiment [2]. Besides, the Kd turned out to be 10 nM in experiment [3] and 2 nM in experiment [4].
`Cc1ccsc1C(=O)Nc1ccc(F)c([C@]2(C)COCC(N)=N2)c1` [Example 44, 3-methyl-thiophene-2-carboxylic acid [3-((R)-5-amino-3-methyl-3,6-dihydro-2H-[1,4]oxazin-3-yl)-4-fluoro-phenyl]-amide]: the IC50 in experiment [1] amounted to 310 nM; in experiment [2], 470 nM. Moreover, the Kd was found to be 1820 nM in experiment [3] and 43 nM in experiment [4].
Consider `CC1(C)OCC(N)=N[C@]1(C)c1cc(NC(=O)C2CC2(F)F)ccc1F` (mixture of isomers) [Example 56, (RS)-2,2-difluoro-cyclopropanecarboxylic [3-((R)-5-amino-2,2,3-trimethyl-3,6-dihydro-2H-[1,4]oxazin-3-yl)-4-fluoro-phenyl]-amide], for which the IC50 was over 10000 nM in experiment [1] and 1190 nM in experiment [2]. The figures for the dissociation constant (Kd) in experiment [3] and in experiment [4] were 10800 nM and 1720 nM, respectively.
For `C[C@@]1(c2cc(NC(=O)c3ccc(Cl)cn3)ccc2F)COCC(N)=N1` [Example 21, (R)-5-chloro-pyridine-2-carboxylic acid [3-(5-amino-3-methyl-3,6-dihydro-2H-[1,4]oxazin-3-yl)-4-fluoro-phenyl]-amide], in experiment [1], the half-maximal inhibitory concentration (IC50) was 2 nM. In addition, binding in experiment [4] was put at a Kd of 4 nM.
On to `C[C@@]1(c2cc(NC(=O)C(F)F)ccc2F)COCC(N)=N1` [Example 91, N-[3-((R)-5-amino-3-methyl-3,6-dihydro-2H-[1,4]oxazin-3-yl)-4-fluoro-phenyl]-2,2-difluoro-acetamide formate], for which the half-maximal inhibitory concentration (IC50) in experiment [1] stood at 95 nM; in experiment [2], 1460 nM. For the same compound, the Kd in experiment [3] amounted to 994 nM; in experiment [4], 1140 nM.
With `C[C@@]1(c2cc(NC(=O)c3cnc(C(F)(F)F)cn3)ccc2F)COCC(N)=N1` [Example 81, 5-trifluoromethyl-pyrazine-2-carboxylic acid [3-((R)-5-amino-3-methyl-3,6-dihydro-2H-[1,4]oxazin-3-yl)-4-fluoro-phenyl]-amide formate], the IC50 is 210 nM in experiment [1] and 47 nM in experiment [2]. For the same compound, the dissociation constant Kd was 102 nM in experiment [3] and 256 nM in experiment [4].
For `C[C@@]1(c2cc(NC(=O)c3ncc(Cl)cc3Cl)ccc2F)COCC(N)=N1` [Example 34, 3,5-dichloro-pyridine-2-carboxylic acid [3-((R)-5-amino-3-methyl-3,6-dihydro-2H-[1,4]oxazin-3-yl)-4-fluoro-phenyl]-amide], the IC50 in experiment [1] was 4 nM. In experiment [4], this compound returned a Kd of 3 nM.
With `CC1(c2cc(NC(=O)c3ccc(Cl)cn3)ccc2F)COCC(N)=N1` (racemic) [Example 20, (RS)-5-chloro-pyridine-2-carboxylic acid [3-(5-amino-3-methyl-3,6-dihydro-2H-[1,4]oxazin-3-yl)-4-fluoro-phenyl]-amide], in experiment [1], the IC50 was found to be 6 nM. In addition, in experiment [4], the Kd amounted to 8 nM.
Consider `CC1(c2cc(NC(=O)C3(C(F)(F)F)CC3)ccc2F)COCC(N)=N1` (racemic) [Example 57], for which inhibition in experiment [1] was half-maximal at 320 nM (IC50). For the same compound, the dissociation constant (Kd) was over 10000 nM in experiment [3] and 1800 nM in experiment [4].
For `CC1(C)OCC(N)=N[C@]1(C)c1cc(NC(=O)C2(C(F)(F)F)CC2)ccc1F` [Example 55, 1-trifluoromethyl-cyclopropanecarboxylic acid [3-((R)-5-amino-2,2,3-trimethyl-3,6-dihydro-2H-[1,4]oxazin-3-yl)-4-fluoro-phenyl]-amide], the IC50 in experiment [1] was 46 nM. Also, the values for the Kd in experiment [3] and in experiment [4] were 6400 nM and 2300 nM, respectively.
With `CC1(c2cccc(NC(=O)c3ccc(OCC4CC4)cn3)c2)COCC(N)=N1` (racemic) [Example 60, 5-cyclopropylmethoxy-pyridine-2-carboxylic acid [3-((RS)-5-amino-3-methyl-3,6-dihydro-2H-[1,4]oxazin-3-yl)-phenyl]-amide hydrochloride], the equilibrium dissociation constant (Kd) in experiment [3] was determined as 112 nM; in experiment [4], 117 nM. This compound also showed a half-maximal inhibitory concentration (IC50) in experiment [2] of 140 nM.
As to `C=CCCOc1ccc(C(=O)Nc2cccc(C3(C)COCC(N)=N3)c2)nc1` (racemic) [Example 64, 5-but-3-enyloxy-pyridine-2-carboxylic acid [3-((RS)-5-amino-3-methyl-3,6-dihydro-2H-[1,4]oxazin-3-yl)-phenyl]-amide], the dissociation constant (Kd) in experiment [3] came out at 483 nM; in experiment [4], 7820 nM. The same compound showed a half-maximal inhibitory concentration (IC50) in experiment [2] of 660 nM.
As to `CC1(c2cccc(NC(=O)c3ncc(F)cc3F)c2)COCC(N)=N1` (racemic) [Example 1, (RS)-3,5-Difluoro-pyridine-2-carboxylic acid [3-(5-amino-3-methyl-3,6-dihydro-2H-[1,4]oxazin-3-yl)-phenyl]-amide], in experiment [1], 21 nM corresponded to half-maximal inhibition (IC50). In experiment [4], the Kd worked out at 44 nM.
With `C[C@@]1(c2cc(NC(=O)C(F)C(F)(F)F)ccc2F)COCC(N)=N1` (mixture of isomers) [Example 89, formate], the half-inhibitory concentration (IC50) in experiment [1] was 820 nM; in experiment [2] it was 500 nM. For the same compound, binding in experiment [3] was put at a Kd of 805 nM.
Turning to `CC1(c2cccc(NC(=O)c3ccc(OCC(F)(F)F)cn3)c2)COCC(N)=N1` (racemic) [Example 24, (RS)-5-(2,2,2-Trifluoro-ethoxy)-pyridine-2-carboxylic acid [3-(5-amino-3-methyl-3,6-dihydro-2H-[1,4]oxazin-3-yl)-phenyl]-amide hydrochloride], the Kd was 1880 nM in experiment [3] and 5750 nM in experiment [4]. For the same compound, the IC50 in experiment [2] is 120 nM.
The matching figures for `CC1(c2cccc(NC(=O)c3ccc(OCC(F)F)cn3)c2)COCC(N)=N1` (racemic) [Example 62, 5-(2,2-difluoro-ethoxy)-pyridine-2-carboxylic acid [3-((RS)-5-amino-3-methyl-3,6-dihydro-2H-[1,4]oxazin-3-yl)-phenyl]-amide hydrochloride]: 5520 nM, 7340 nM and 270 nM.
With `Cc1nc(C(=O)Nc2cccc(C3(C)COCC(N)=N3)c2)co1` (racemic) [Example 12, (RS)-2-methyl-oxazole-4-carboxylic acid [3-(5-amino-3-methyl-3,6-dihydro-2H-[1,4]oxazin-3-yl)-phenyl]-amide], the IC50 in experiment [1] turned out to be 17 nM; in experiment [2] it was 20 nM.
For the compound `CC1(c2cc(NC(=O)c3ccc(N4CCCC4)cn3)ccc2F)COCC(N)=N1` (racemic) [Example 77, 5-pyrrolidin-1-yl-pyridine-2-carboxylic acid [3-((RS)-5-amino-3-methyl-3,6-dihydro-2H-[1,4]oxazin-3-yl)-4-fluoro-phenyl]-amide], the Kd in experiment [3] is 1440 nM; in experiment [4], 2600 nM. Further, half-maximal inhibition in experiment [2] (IC50) required 800 nM.
`CC1(c2cc(NC(=O)C(F)(F)C(F)(F)F)ccc2F)COCC(N)=N1` (racemic) [Example 26, (RS)—N-[3-(5-Amino-3-methyl-3,6-dihydro-2H-[1,4]oxazin-3-yl)-4-fluoro-phenyl]-2,2,3,3,3-pentafluoro-propionamide]: the values for the IC50 in experiment [1] and in experiment [2] were 2230 nM and 375 nM, respectively.
